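Values below derive from 48-hour exposures of cells grown in 96-well plates, with endpoints linearly interpolated between the two concentrations bracketing the appropriate inhibition level. Here, GI50 denotes the concentration required for 50% inhibition of growth. TGI: concentration producing complete growth inhibition.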
Legend:
Assay in all cases: NCI tumour cell line growth inhibition, 48 h; in the data active = GI50 below about 0.43 µM; inactive = the rest
[1] = tested on: 786-0 renal
[2] = tested on: A549 NSCLC
[3] = tested on: ACHN renal
[4] = tested on: BT-549 breast
[5] = tested on: CAKI-1 renal
[6] = tested on: CCRF-CEM leukemia
[7] = tested on: COLO 205 colon
[8] = tested on: DU-145 prostate
[9] = tested on: EKVX NSCLC
[10] = tested on: HCC-2998 colon
[11] = tested on: HCT-116 colon
[12] = tested on: HCT-15 colon
[13] = tested on: HL-60(TB) leukemia
[14] = tested on: HOP-62 NSCLC
[15] = tested on: HOP-92 NSCLC
[16] = tested on: HS 578T breast
[17] = tested on: HT29 colon
[18] = tested on: IGROV1 ovarian
[19] = tested on: K-562 leukemia
[20] = tested on: KM12 colon
[21] = tested on: LOX IMVI melanoma
[22] = tested on: M14 melanoma
[23] = tested on: MALME-3M melanoma
[24] = tested on: MCF7 breast
[25] = tested on: MDA-MB-231 breast
[26] = tested on: MDA-MB-435
[27] = tested on: MOLT-4 leukemia
[28] = tested on: NCI-H226 lung
[29] = tested on: NCI-H23 lung
[30] = tested on: NCI-H460 lung
[31] = tested on: NCI-H522 lung
[32] = tested on: NCI/ADR-RES ovarian
[33] = tested on: OVCAR-3 ovarian
[34] = tested on: OVCAR-4 ovarian
[35] = tested on: OVCAR-5 ovarian
[36] = tested on: OVCAR-8 ovarian
[37] = tested on: PC-3 prostate
[38] = tested on: RPMI-8226 leukemia
[39] = tested on: SF-268 CNS
[40] = tested on: SF-295 CNS
[41] = tested on: SF-539 CNS
[42] = tested on: SK-MEL-2 melanoma
[43] = tested on: SK-MEL-28 melanoma
[44] = tested on: SK-MEL-5 melanoma
[45] = tested on: SK-OV-3 ovarian
[46] = tested on: SN12C renal
[47] = tested on: SNB-19 CNS
[48] = tested on: SNB-75 CNS
[49] = tested on: SR leukemia
[50] = tested on: SW-620 colon
[51] = tested on: T-47D breast
[52] = tested on: TK-10 renal
[53] = tested on: U251 CNS
[54] = tested on: UACC-62 melanoma
[55] = tested on: UO-31 renal
[56] = tested on: A498 renal
[57] = tested on: RXF 393 renal
[58] = tested on: UACC-257 melanoma

CC(C)(Oc1ccc(Cl)cc1)C(=O)NC1C2CC3CC1CC(NS(C)(=O)=O)(C3)C2 (centres undefined)
83.2 µM: TGI [4]
inactive: GI50 [1] 37.4 µM | GI50 [2] > 100000 nM | GI50 [3] 27.4 µM | GI50 [4] 29.1 µM | GI50 [5] > 100 µM | GI50 [6] 39.1 µM | GI50 [7] > 100000 nM | GI50 [8] > 100000 nM | GI50 [9] > 100000 nM | GI50 [10] > 100000 nM | GI50 [11] 38.5 µM | GI50 [12] > 100000 nM | GI50 [13] 22.7 µM | GI50 [14] > 100000 nM | GI50 [15] 19 µM | GI50 [16] 33.2 µM | GI50 [17] > 100000 nM | GI50 [18] 54.9 µM | GI50 [19] 34.3 µM | GI50 [20] > 100000 nM | GI50 [21] > 100000 nM | GI50 [22] 26.2 µM | GI50 [23] 55.5 µM | GI50 [24] > 100000 nM | GI50 [25] 66.8 µM | GI50 [26] > 100000 nM | GI50 [27] 20.7 µM | GI50 [28] > 100000 nM | GI50 [29] > 100000 nM | GI50 [30] > 100000 nM | GI50 [31] > 100000 nM | GI50 [32] > 100000 nM | GI50 [33] > 100000 nM | GI50 [34] 23.3 µM | GI50 [35] 68.4 µM | GI50 [36] > 100000 nM | GI50 [37] 30.7 µM | GI50 [38] 20.9 µM | GI50 [39] > 100000 nM | GI50 [40] > 100000 nM | GI50 [41] 37.5 µM | GI50 [42] > 100000 nM | GI50 [43] 26.8 µM | GI50 [44] > 100000 nM | GI50 [45] > 100000 nM | GI50 [46] > 100000 nM | GI50 [47] > 100000 nM | GI50 [48] 42.8 µM | GI50 [49] 18.5 µM | GI50 [50] > 100000 nM | GI50 [51] > 100000 nM | GI50 [52] > 100000 nM | GI50 [53] > 100000 nM | GI50 [54] 24.1 µM | GI50 [55] > 100000 nM
58.8 µM: TGI [13]
68.1 µM: TGI [38]
80.1 µM: TGI [22]
69.1 µM: TGI [15]
> 100000 nM: TGI [7] | TGI [9] | TGI [10] | TGI [11] | TGI [12] | TGI [17] | TGI [21] | TGI [24] | TGI [25] | TGI [26] | TGI [33] | TGI [34] | TGI [44] | TGI [48]
> 100 µM: TGI [1] | TGI [2] | TGI [3] | TGI [5] | TGI [6] | TGI [8] | TGI [14] | TGI [16] | TGI [18] | TGI [19] | TGI [20] | TGI [23] | TGI [28] | TGI [29] | TGI [30] | TGI [31] | TGI [32] | TGI [35] | TGI [36] | TGI [37] | TGI [39] | TGI [40] | TGI [41] | TGI [42] | TGI [43] | TGI [45] | TGI [46] | TGI [47] | TGI [50] | TGI [51] | TGI [52] | TGI [53] | TGI [54] | TGI [55]
58.9 µM: TGI [49]
84.6 µM: TGI [27]

CC(C)(C)CC(C)(C)c1ccc(OCCSC(=N)N)cc1
2920 nM: TGI [21]
4.05 µM: TGI [39]
2800 nM: TGI [25] | TGI [26]
5.83 µM: TGI [28]
2580 nM: TGI [57]
5.32 µM: TGI [6]
5.54 µM: TGI [45]
3.05 µM: TGI [20]
2380 nM: TGI [12]
4.8 µM: TGI [4] | TGI [27]
3.86 µM: TGI [19]
3.42 µM: TGI [22]
3.16 µM: TGI [54]
3.46 µM: TGI [23]
4.17 µM: TGI [37]
2980 nM: TGI [9]
3.59 µM: TGI [38]
3.27 µM: TGI [3]
5.42 µM: TGI [16]
2850 nM: TGI [11]
4.43 µM: TGI [2]
3000 nM: TGI [24]
3.87 µM: TGI [30]
5.08 µM: TGI [36]
1880 nM: TGI [10]
3.7 µM: TGI [42]
2790 nM: TGI [48]
3.21 µM: TGI [46]
11.5 µM: TGI [56]
3.17 µM: TGI [53]
2910 nM: TGI [34]
3.34 µM: TGI [43] | TGI [50] | TGI [52]
3.12 µM: TGI [40]
3.97 µM: TGI [55]
5.2 µM: TGI [18]
2.57 µM: TGI [15]
4 µM: TGI [14]
3.52 µM: TGI [13]
3.91 µM: TGI [51]
3.68 µM: TGI [29]
3.35 µM: TGI [41]
active: GI50 [17] 417 nM
13.6 µM: TGI [5]
3.88 µM: TGI [32]
3.77 µM: TGI [35]
3.09 µM: TGI [1]
1850 nM: TGI [17]
3.45 µM: TGI [31] | TGI [47] | TGI [58]
2890 nM: TGI [33]
2010 nM: TGI [7]
2680 nM: TGI [44]
inactive: GI50 [1] 1.51 µM | GI50 [56] 2340 nM | GI50 [2] 1910 nM | GI50 [3] 1.64 µM | GI50 [4] 2.02 µM | GI50 [5] 3.13 µM | GI50 [6] 1.99 µM | GI50 [7] 564 nM | GI50 [8] 1740 nM | GI50 [9] 1410 nM | GI50 [10] 610 nM | GI50 [11] 1.38 µM | GI50 [12] 1060 nM | GI50 [13] 1.6 µM | GI50 [14] 2150 nM | GI50 [15] 1.14 µM | GI50 [16] 2.15 µM | GI50 [18] 2.31 µM | GI50 [19] 0.833 µM | GI50 [20] 1500 nM | GI50 [21] 1480 nM | GI50 [22] 1.68 µM | GI50 [23] 1.81 µM | GI50 [24] 1320 nM | GI50 [25] 1.22 µM | GI50 [26] 1450 nM | GI50 [27] 1.7 µM | GI50 [28] 1930 nM | GI50 [29] 1810 nM | GI50 [30] 1890 nM | GI50 [31] 1590 nM | GI50 [32] 1870 nM | GI50 [33] 1470 nM | GI50 [34] 1.43 µM | GI50 [35] 1.88 µM | GI50 [36] 2080 nM | GI50 [37] 1.61 µM | GI50 [38] 1.36 µM | GI50 [57] 1180 nM | GI50 [39] 2010 nM | GI50 [40] 1690 nM | GI50 [41] 1.75 µM | GI50 [42] 1960 nM | GI50 [43] 1.7 µM | GI50 [44] 1370 nM | GI50 [45] 2570 nM | GI50 [46] 1680 nM | GI50 [47] 1700 nM | GI50 [48] 1.43 µM | GI50 [50] 1450 nM | GI50 [51] 1630 nM | GI50 [52] 1760 nM | GI50 [53] 1570 nM | GI50 [58] 1720 nM | GI50 [54] 1.72 µM | GI50 [55] 1580 nM
3.22 µM: TGI [8]
